Measured values as given in patent US20240343699A1, “DERIVATIVES OF SUBSTITUTED MORPHOLINES AND USES THEREOF” (Supernus Pharmaceuticals, Inc., priority 2023, published 2024).
Several values for one entry are separate records, joined by “and”; a condition that tells them apart may be missing. Identical values can stand only once. Like-named read-outs stand apart in the source and are kept apart here.

Key:
[1] = Metabolic stability in rat liver S9; type: in vitro ADME, Sprague Dawley rat; set-up: half-life: dose or concentration left out as unconfirmed; conditions: for half-life: Sprague Dawley (rat), rat, dog and human liver S9 incubations (summary over species), read-out: half-lives; for half-life / half-life at 1 μM / microsomal CLint at 1 μM: pH 7.2; for half-life at 1 μM / microsomal CLint at 1 μM: Sprague Dawley; for half-life at 1 μM / microsomal CLint at 1 μM / % Remaining / Analyte Peak area/IS Peak area Mean × 100 (n = 2): rat liver S9, 1 μM; for microsomal CLint at 1 μM: read-out: CLint(LS9)
Protocol: (§1) Incubation Buffer (PBK): 50 mM potassium phosphate buffer was prepared from 1 M potassium phosphate buffer, pH 7.2. […] The dilution of […] was prepared by 90% methanol/10% DMSO, then 10 μM working solutions were prepared by diluting the 0.1 mM intermediates with 50 mM PBK. […] Prior to use, the stock solutions were brought to room temperature and thoroughly mixed. […] Cofactors Solutions: the mixture of cofactors solution was made at 10 mM of NADPH and 10 mM of UDPGA in PBK buffer.
(§2) The incubation was carried out in 96-well plates. The liver S9 working solutions were added to 96-well plates (80 μL/well) in duplicate. […] Reaction was initiated by adding cofactor mixture 10 μL/well. The plates were incubated at 37° C. in a water bath with shaking. […] The final organic solvent content in the incubation was ≤1%.
(§3) At specified time points, i.e., 5, 10, 20, 30 and 60 minutes, NCF60 (without adding NADPH (Nicotinamide-adenine dinucleotide phosphate, reduced form) and UDPGA (Uridine 5′-diphosphoglucuronic acid trisodium salt) replaced with PBK buffer reaction was stopped by adding three volumes of stop solution. The time zero (To) samples were prepared by adding three volumes of stop solution to liver S9 samples, followed by addition of test article or control, and cofactor mixture solution 10 μL/well.
(§4) Subsequently, 100 μL of supernatant.
(§5) Positive controls: 7-ethoxycoumarin and 7-hydroxycoumarin.

[2] = target: T1, hNav1.5 (Homo sapiens, UniProt Q14524); assay: Nav1.5 human sodium ion channel cell based automated patch clamp assay (QPatch HT); conditions: Antagonist
T1 construct: CYL6004QP2DR
Protocol: Electrophysiological assays were conducted to profile five compounds for activities on the ion channel target using the QPatch HT electrophysiological platform.
CYL6004QP2DR Nav1.5 Human Sodium Ion Channel Cell Based Automated Patch Clamp Assay. Cells were held at −120 mV for 100 ms, stepped to −130 mV for 100 ms, and stepped back to −120 mV for 100 ms to measure the leak current. Na channels exist in a) resting or closed state at −120 mV, b) a transient open state that inactivates to c) inactivated state at −10 mV. Na current inhibition within 1-2 ms of channel opening at −10 mV is open channel inhibition (pulse 1). […] Pulse 1 and 2 are used to investigate drug binding to the open state and inactivated state of the Na channels, respectively. Each concentration of compound was applied for 5 minutes.
Current amplitudes more than 200 pA at the control stage were analyzed. The amplitude of the current was calculated by measuring the difference between the peak inward current on stepping to −10 mV (i.e. peak of the current) and remaining current at the end of the step. The current was assessed in vehicle control conditions and then at the end of each five (5) minute compound application.

[3] = Metabolic stability in human liver S9; type: in vitro ADME; conditions: human liver S9, 1 μM; for half-life at 1 μM / microsomal CLint at 1 μM: pH 7.2; for microsomal CLint at 1 μM: read-out: CLint(LS9)
Protocol: as §1, §2, §3, §4, §5

[4] = test system: behavioral signature; assay: SmartCube phenotypic screening (class/subclass and DRFA similarity analysis); type: in vivo, male C57/B16 mice; conditions: for proximity to donepezil / proximity to thioperamide: DRFA dose by dose, maximum (COMPOUND A: 90 and 120 mg/kg)
Protocol: A study was conducted to evaluate the CNS-like efficacy of novel test compounds using the SmartCube® System.
Animals. Male C57/B16 mice from Taconic Laboratories (Germantown, NY) were used. Upon receipt, mice were group-housed in OPTIMice® ventilated cages with 4 mice per cage. Mice were acclimated to the colony room for at least one week prior to test, and subsequently tested at approximately 8-9 weeks of age. All animals were examined, handled, and weighed prior to initiation of the study to assure adequate health and suitability and to minimize nonspecific stress associated with manipulation. During the course of the study, 12/12 light/dark cycles were maintained. The room temperature was 20-23° C. with a relative humidity maintained between 30-70%. Chow and water were provided ad libitum for the duration of the study.
Test compounds. All compounds were administered orally at a dose volume of 10 mL/kg, 20 minutes prior to testing. Formulations were prepared fresh on day of testing and dosing was completed within one hour of formulation. Compounds were prepared according to the table below. Twelve mice were used in each treatment group:
SmartCube®. The SmartCube® system is designed to and can successfully measure numerous spontaneous behaviors and response to challenges in the same testing environment. The hardware includes force sensors and a number of aversive stimuli to elicit behavior. Three high-resolution video cameras provide constant 3D view of the mouse in the SmartCube® apparatus (SC) throughout the entire testing period. During the 45-minute test session the mice are exposed to a sequence of challenges. The cubes are cleaned between each run.
Digital videos of the subjects were processed through computer segmentation algorithms to fit geometrical models to each mouse frame image. The resulting fitted parameters were then analyzed using behavioral classifier algorithms to extract behavioral states, such as rearing, locomotion, and immobility. The data obtained in this way was used to define a drug signature for PGI's known reference compounds and establish a therapeutic class signature against which a test sample can be compared.
The data mining effort utilizes several analytical methods including Bayesian probabilistic density models and Decision trees. The algorithms consider ˜2,600 measures including frequency and duration of behavioral states such as grooming, rearing, etc., and many other features obtained during the test session.
Two major types of analyses are routinely conducted: Class and subclass.
Each reference drug was tested at multiple doses appropriate for that drug in mice.
Multiple analyses of the data were performed to quantitatively produce independent predictions of drug class, and drug subclass. The behavioral signatures of the test drugs were evaluated using these classifiers to predict potential therapeutic utility.
The results for the class and subclass analyses are presented as standardized bar charts with percentages that sum to 100 for each dose.
Similarity Analysis Using “Clouds Framework”. The outcome from SmartCube® is a large set of features (behavioral parameters) that can be used for various analyses. […] Therefore, we formed statistically independent combinations of the original features (further referred to as de-correlated features). Each de-correlated feature extracted information from the whole cluster of the original features, so the new feature space would have lower dimensionality. Next, we applied a proprietary feature ranking algorithm to score each feature for its discrimination power (ability to separate the two groups, e.g. vehicle from treatment). Ranking is an important part of our analyses because it weighs each feature change by its relevance. We applied a feature ranking algorithm, derived from support vector in the support vector machine learning method, to rank each feature.

[5] = Pulse 1 (open state), read-out: Estimated IC50 (Pulse 1)
[6] = Pulse 2 (inactivated state), read-out: Estimated IC50 (Pulse 2)

T1 sequence (Q14524 whole entry): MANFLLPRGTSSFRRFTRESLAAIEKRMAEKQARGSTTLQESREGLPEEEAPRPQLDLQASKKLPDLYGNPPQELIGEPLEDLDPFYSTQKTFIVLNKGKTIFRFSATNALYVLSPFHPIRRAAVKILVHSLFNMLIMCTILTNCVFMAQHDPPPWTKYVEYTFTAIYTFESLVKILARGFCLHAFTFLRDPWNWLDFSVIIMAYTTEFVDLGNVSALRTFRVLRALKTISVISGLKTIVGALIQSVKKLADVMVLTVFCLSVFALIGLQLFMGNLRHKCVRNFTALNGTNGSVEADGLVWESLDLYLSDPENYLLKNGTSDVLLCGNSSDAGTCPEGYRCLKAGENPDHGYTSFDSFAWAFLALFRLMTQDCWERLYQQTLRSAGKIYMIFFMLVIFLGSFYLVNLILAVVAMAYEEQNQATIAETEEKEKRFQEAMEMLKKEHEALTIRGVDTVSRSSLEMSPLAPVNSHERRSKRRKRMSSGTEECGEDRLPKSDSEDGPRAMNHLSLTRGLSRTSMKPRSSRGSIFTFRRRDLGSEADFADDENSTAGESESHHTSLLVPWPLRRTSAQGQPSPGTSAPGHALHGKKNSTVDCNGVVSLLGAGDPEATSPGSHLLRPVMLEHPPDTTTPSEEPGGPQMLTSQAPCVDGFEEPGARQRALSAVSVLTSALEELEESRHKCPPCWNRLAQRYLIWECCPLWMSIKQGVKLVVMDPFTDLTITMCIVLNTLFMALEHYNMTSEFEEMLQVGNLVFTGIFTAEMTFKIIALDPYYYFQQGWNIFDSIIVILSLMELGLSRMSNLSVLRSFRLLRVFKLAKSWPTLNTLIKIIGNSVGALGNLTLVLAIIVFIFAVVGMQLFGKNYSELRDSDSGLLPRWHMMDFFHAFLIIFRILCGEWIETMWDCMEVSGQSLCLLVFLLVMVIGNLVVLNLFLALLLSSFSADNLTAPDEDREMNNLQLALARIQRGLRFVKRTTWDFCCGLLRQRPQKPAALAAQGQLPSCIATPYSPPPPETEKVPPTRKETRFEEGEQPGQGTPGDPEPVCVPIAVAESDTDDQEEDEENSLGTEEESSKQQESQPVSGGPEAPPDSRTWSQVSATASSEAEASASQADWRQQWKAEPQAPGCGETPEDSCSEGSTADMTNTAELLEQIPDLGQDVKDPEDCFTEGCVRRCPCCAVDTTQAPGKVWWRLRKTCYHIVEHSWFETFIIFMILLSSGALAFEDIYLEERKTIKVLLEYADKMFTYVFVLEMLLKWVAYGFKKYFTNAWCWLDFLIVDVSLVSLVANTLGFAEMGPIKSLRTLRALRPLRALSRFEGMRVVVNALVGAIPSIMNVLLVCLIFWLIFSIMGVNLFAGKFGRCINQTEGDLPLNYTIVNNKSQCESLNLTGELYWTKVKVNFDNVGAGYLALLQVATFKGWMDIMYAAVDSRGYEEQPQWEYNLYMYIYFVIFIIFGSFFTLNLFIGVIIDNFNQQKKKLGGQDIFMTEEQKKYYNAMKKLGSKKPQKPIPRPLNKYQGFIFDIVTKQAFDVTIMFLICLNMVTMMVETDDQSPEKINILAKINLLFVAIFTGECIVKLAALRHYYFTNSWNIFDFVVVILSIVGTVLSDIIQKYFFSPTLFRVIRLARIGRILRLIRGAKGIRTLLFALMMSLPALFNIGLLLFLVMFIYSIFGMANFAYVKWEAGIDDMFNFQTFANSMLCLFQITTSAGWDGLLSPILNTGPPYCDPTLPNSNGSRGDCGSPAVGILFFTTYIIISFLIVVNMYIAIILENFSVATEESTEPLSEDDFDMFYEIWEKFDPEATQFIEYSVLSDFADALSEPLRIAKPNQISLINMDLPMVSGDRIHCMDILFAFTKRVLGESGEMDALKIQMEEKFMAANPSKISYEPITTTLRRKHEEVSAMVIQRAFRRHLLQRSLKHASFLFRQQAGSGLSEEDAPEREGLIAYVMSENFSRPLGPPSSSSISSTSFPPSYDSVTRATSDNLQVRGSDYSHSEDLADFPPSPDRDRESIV

CCOc1ccccc1OC[C@@H]1CN(C(=O)OC(OC(=O)[C@H](N)C(C)C)C(C)C)CCO1 (some centres unmarked) [COMPOUND C]
half-life [1]: 4 to 12 min | half-life at 1 μM [1]: 8.53 min | microsomal CLint at 1 μM [1]: 163 µL/min/mg | % Remaining ([1]; 0 min): 100% | Analyte Peak area/IS Peak area Mean × 100 (n = 2) ([1]; 0 min): 6.55 | % Remaining ([1]; 5 min): 19% | Analyte Peak area/IS Peak area Mean × 100 (n = 2) ([1]; 5 min): 1.24 | % Remaining ([1]; 10 min): 13% | Analyte Peak area/IS Peak area Mean × 100 (n = 2) ([1]; 10 min): 0.834 | % Remaining ([1]; 20 min): 5.6% | Analyte Peak area/IS Peak area Mean × 100 (n = 2) ([1]; 20 min): 0.365 | % Remaining ([1]; 30 min): 3.5% | Analyte Peak area/IS Peak area Mean × 100 (n = 2) ([1]; 30 min): 0.228 | % Remaining ([1]; 60 min): 0.39% and 0.4% | Analyte Peak area/IS Peak area Mean × 100 (n = 2) ([1]; 60 min): 0.026 | % Remaining ([1]; NCF60 (no cofactors, 60 min)): 3.5% | Analyte Peak area/IS Peak area Mean × 100 (n = 2) ([1]; NCF60 (no cofactors, 60 min)): 0.228 | IC50 [2, 5]: > 100 µM | IC50 [2, 6]: 8.5 µM | % Remaining ([3]; 0 min): 100% | Analyte Peak area/IS Peak area Mean × 100 (n = 2) ([3]; 0 min): 10.6 | % Remaining ([3]; 5 min): 7.7% | Analyte Peak area/IS Peak area Mean × 100 (n = 2) ([3]; 5 min): 0.808 | % Remaining ([3]; 10 min): 4.2% | Analyte Peak area/IS Peak area Mean × 100 (n = 2) ([3]; 10 min): 0.446 | % Remaining ([3]; 20 min): 2.8% | Analyte Peak area/IS Peak area Mean × 100 (n = 2) ([3]; 20 min): 0.297 | % Remaining ([3]; 30 min): 1.5% | Analyte Peak area/IS Peak area Mean × 100 (n = 2) ([3]; 30 min): 0.160 | % Remaining ([3]; 60 min): 0.19% and 0.2% | Analyte Peak area/IS Peak area Mean × 100 (n = 2) ([3]; 60 min): 0.020 | % Remaining ([3]; NCF60 (no cofactors, 60 min)): 0.6% | Analyte Peak area/IS Peak area Mean × 100 (n = 2) ([3]; NCF60 (no cofactors, 60 min)): 0.061 | half-life at 1 μM [3]: 8.12 min | microsomal CLint at 1 μM [3]: 171 µL/min/mg | behavioral activity (class/subclass analysis) ([4]; 60-150 mg/kg PO): high behavioral activity | proximity to donepezil [4]: around 100% | proximity to thioperamide [4]: around 100% | proximity to amphetamine ([4]; DRFA, active doses): > 75% | proximity to atomoxetine ([4]; DRFA, active doses): > 75% | class signature ([4]; highest dose tested (150 mg/kg PO)): predominant antipsychotic-like signature

CCOc1ccccc1OC[C@@H]1CN(C(=O)OC(C)OC(=O)[C@@H](N)C(C)C)CCO1 (some centres unmarked) [COMPOUND A]
half-life [1]: 4 to 12 min | half-life at 1 μM [1]: 8.61 min | microsomal CLint at 1 μM [1]: 161 µL/min/mg | % Remaining ([1]; 0 min): 100% | Analyte Peak area/IS Peak area Mean × 100 (n = 2) ([1]; 0 min): 10.7 | % Remaining ([1]; 5 min): 6.3% | Analyte Peak area/IS Peak area Mean × 100 (n = 2) ([1]; 5 min): 0.669 | % Remaining ([1]; 10 min): 5.4% | Analyte Peak area/IS Peak area Mean × 100 (n = 2) ([1]; 10 min): 0.574 | % Remaining ([1]; 20 min): 3.4% | Analyte Peak area/IS Peak area Mean × 100 (n = 2) ([1]; 20 min): 0.362 | % Remaining ([1]; 30 min): 1.6% | Analyte Peak area/IS Peak area Mean × 100 (n = 2) ([1]; 30 min): 0.171 | % Remaining ([1]; 60 min): 0.25% | Analyte Peak area/IS Peak area Mean × 100 (n = 2) ([1]; 60 min): 0.026 | % Remaining ([1]; NCF60 (no cofactors, 60 min)): 2.2% | Analyte Peak area/IS Peak area Mean × 100 (n = 2) ([1]; NCF60 (no cofactors, 60 min)): 0.237 | IC50 [2, 5]: > 100 µM | IC50 [2, 6]: 19.6 µM | % Remaining ([3]; 0 min): 100% | Analyte Peak area/IS Peak area Mean × 100 (n = 2) ([3]; 0 min): 11.7 | % Remaining ([3]; 5 min): 1.4% | Analyte Peak area/IS Peak area Mean × 100 (n = 2) ([3]; 5 min): 0.164 | % Remaining ([3]; 10 min): 1.2% | Analyte Peak area/IS Peak area Mean × 100 (n = 2) ([3]; 10 min): 0.143 | % Remaining ([3]; 20 min): 0.3% | Analyte Peak area/IS Peak area Mean × 100 (n = 2) ([3]; 20 min): 0.039 | % Remaining ([3]; 30 min): 0.2% | Analyte Peak area/IS Peak area Mean × 100 (n = 2) ([3]; 30 min): 0.021 | % Remaining ([3]; 60 min): 0.01% and 0.0% | Analyte Peak area/IS Peak area Mean × 100 (n = 2) ([3]; 60 min): 0.001 | % Remaining ([3]; NCF60 (no cofactors, 60 min)): 0.1% | Analyte Peak area/IS Peak area Mean × 100 (n = 2) ([3]; NCF60 (no cofactors, 60 min)): 0.008 | half-life at 1 μM [3]: 5.76 min | microsomal CLint at 1 μM [3]: 241 µL/min/mg | behavioral activity (class/subclass analysis) ([4]; 30-120 mg/kg PO): high behavioral activity | Subclass signature ([4]; COMPOUND A 30-120 mg/kg, COMPOUND B 90 and 120 mg/kg PO): predominantly cognitive enhancer-like | proximity to donepezil [4]: > 65% | proximity to thioperamide [4]: > 75%
